In publication PMC10177510, “A Multicenter, Open-Label, Phase I/II Study of FN-1501 in Patients with Advanced Solid Tumors” (Cancers, 2023):
Converted amounts (≈) assume the structure as drawn.

Experiments:
MOLM-13 = tested on: MOLM-13; parameters: method as in data on file, Fosun Pharma; settings: ref data on file, Fosun Pharma; cited from earlier work
[1] = Plasma pharmacokinetics of FN-1501 and metabolite M3 in patients (LC/MS-MS, noncompartmental); assay type: in vivo, human; settings: for AUClast / AUC∞ / CL / Cmax / MRT∞ / Vss / Vz / t1/2 / tmax: mean; for Clearance: discussion; for Css,u: 260 mg
Description: For PK assessment, blood samples were collected pre-dose and 0.083, 0.25, 0.5, 1, 2, 4, 6, 8, 12, 24, and 48 h post-dose on Cycle 1, Day 1, and pre-dose on Cycle 2, Day 1. Plasma concentrations of FN-1501 and its metabolite M3 were analyzed at KCAS in Shawnee, KS, using a validated liquid chromatography/tandem mass spectrometry method. Primary pharmacokinetic (PK) endpoints were derived from FN-1501 and M3 concentration–time profiles and were analyzed using standard noncompartmental methods of analysis (Phoenix version 8).

CN1CCN(Cc2ccc(NC(=O)c3[nH]ncc3Nc3ncnc4[nH]ccc34)cc2)CC1 [FN-1501]
IC50 (MOLM-13): 5.2 ng/mL (≈ 0.0121 µM) | AUClast ([1]; 2.5 mg IV): 29.4 ± 11.9 ng·h/mL | AUC∞ ([1]; 2.5 mg IV): 32.4 ± 13.1 ng·h/mL | CL ([1]; 2.5 mg IV): 85.1 ± 26.8 L/h | Cmax ([1]; 2.5 mg IV): 12.0 ± 1.42 ng/mL | MRT∞ ([1]; 2.5 mg IV): 11.7 ± 4.59 h | Vss ([1]; 2.5 mg IV): 913 ± 206 L | Vz ([1]; 2.5 mg IV): 1510 ± 421 L | t1/2 ([1]; 2.5 mg IV): 12.8 ± 3.5 h | tmax ([1]; 2.5 mg IV): 1.2 ± 0.10 h | AUClast ([1]; 5 mg IV): 52.1 ± 18.2 ng·h/mL | AUC∞ ([1]; 5 mg IV): 56.5 ± 18.2 ng·h/mL | CL ([1]; 5 mg IV): 93.9 ± 25.2 L/h | Cmax ([1]; 5 mg IV): 25.5 ± 17.3 ng/mL | MRT∞ ([1]; 5 mg IV): 13.7 ± 3.74 h | Vss ([1]; 5 mg IV): 1320 ± 619 L | Vz ([1]; 5 mg IV): 2570 ± 932 L | t1/2 ([1]; 5 mg IV): 18.6 ± 2.34 h | tmax ([1]; 5 mg IV): 1.1 ± 0.02 h | AUClast ([1]; 10 mg IV): 119 ± 32.6 ng·h/mL | AUC∞ ([1]; 10 mg IV): 129 ± 41.3 ng·h/mL | CL ([1]; 10 mg IV): 84.7 ± 32.4 L/h | Cmax ([1]; 10 mg IV): 36.9 ± 17.5 ng/mL | MRT∞ ([1]; 10 mg IV): 12.5 ± 2.84 h | Vss ([1]; 10 mg IV): 1110 ± 664 L | Vz ([1]; 10 mg IV): 1720 ± 925 L | t1/2 ([1]; 10 mg IV): 13.7 ± 2.68 h | tmax ([1]; 10 mg IV): 1.2 ± 0.15 h | AUClast ([1]; 15 mg IV): 138 ± 10.8 ng·h/mL | AUC∞ ([1]; 15 mg IV): 153 ± 8.45 ng·h/mL | CL ([1]; 15 mg IV): 98.5 ± 5.29 L/h | Cmax ([1]; 15 mg IV): 35.6 ± 2.15 ng/mL | MRT∞ ([1]; 15 mg IV): 16.1 ± 2.64 h | Vss ([1]; 15 mg IV): 1600 ± 331 L | Vz ([1]; 15 mg IV): 2370 ± 536 L | t1/2 ([1]; 15 mg IV): 16.6 ± 3 h | tmax ([1]; 15 mg IV): 1.2 ± 0.14 h | AUClast ([1]; 22.5 mg IV): 251 ± 87.8 ng·h/mL | AUC∞ ([1]; 22.5 mg IV): 239 ± 55.4 ng·h/mL | CL ([1]; 22.5 mg IV): 96.9 ± 22.5 L/h | Cmax ([1]; 22.5 mg IV): 65.8 ± 24.5 ng/mL | MRT∞ ([1]; 22.5 mg IV): 16.4 ± 1.01 h | Vss ([1]; 22.5 mg IV): 1600 ± 466 L | Vz ([1]; 22.5 mg IV): 2570 ± 663 L | t1/2 ([1]; 22.5 mg IV): 18.3 ± 0.49 h | tmax ([1]; 22.5 mg IV): 1.2 ± 0.19 h | AUClast ([1]; 30 mg IV): 297 ± 55.8 ng·h/mL | AUC∞ ([1]; 30 mg IV): 341 ± 47.1 ng·h/mL | CL ([1]; 30 mg IV): 89.1 ± 13.3 L/h | Cmax ([1]; 30 mg IV): 87.8 ± 37.5 ng/mL | MRT∞ ([1]; 30 mg IV): 13.4 ± 8.49 h | Vss ([1]; 30 mg IV): 1130 ± 619 L | Vz ([1]; 30 mg IV): 1500 ± 786 L | t1/2 ([1]; 30 mg IV): 12.4 ± 7.43 h | tmax ([1]; 30 mg IV): 1.1 ± 0.11 h | AUClast ([1]; 40 mg IV): 437 ± 77.2 ng·h/mL | AUC∞ ([1]; 40 mg IV): 499 ± 122 ng·h/mL | CL ([1]; 40 mg IV): 83.6 ± 18.6 L/h | Cmax ([1]; 40 mg IV): 128 ± 41.9 ng/mL | MRT∞ ([1]; 40 mg IV): 18.3 ± 6.19 h | Vss ([1]; 40 mg IV): 1450 ± 185 L | Vz ([1]; 40 mg IV): 2160 ± 195 L | t1/2 ([1]; 40 mg IV): 18.7 ± 5.68 h | tmax ([1]; 40 mg IV): 1.1 ± 0.044 h | AUClast ([1]; 54 mg IV): 773 ± 180 ng·h/mL | AUC∞ ([1]; 54 mg IV): 868 ± 181 ng·h/mL | CL ([1]; 54 mg IV): 63.9 ± 12.4 L/h | Cmax ([1]; 54 mg IV): 323 ± 55.6 ng/mL | MRT∞ ([1]; 54 mg IV): 16.9 ± 7.34 h | Vss ([1]; 54 mg IV): 1080 ± 516 L | Vz ([1]; 54 mg IV): 1820 ± 740 L | t1/2 ([1]; 54 mg IV): 19.6 ± 6.44 h | tmax ([1]; 54 mg IV): 1.1 ± 0.05 h | AUClast ([1]; 72 mg IV): 742 ± 275 ng·h/mL | AUC∞ ([1]; 72 mg IV): 823 ± 292 ng·h/mL | CL ([1]; 72 mg IV): 94.2 ± 28.8 L/h | Cmax ([1]; 72 mg IV): 161 ± 67.7 ng/mL | MRT∞ ([1]; 72 mg IV): 16.8 ± 1.12 h | Vss ([1]; 72 mg IV): 1580 ± 489 L | Vz ([1]; 72 mg IV): 2370 ± 833 L | t1/2 ([1]; 72 mg IV): 17.2 ± 1.58 h | tmax ([1]; 72 mg IV): 1.3 ± 0.24 h | AUClast ([1]; 96 mg IV): 1420 ± 236 ng·h/mL | AUC∞ ([1]; 96 mg IV): 1650 ± 229 ng·h/mL | CL ([1]; 96 mg IV): 59.1 ± 8.20 L/h | Cmax ([1]; 96 mg IV): 494 ± 289 ng/mL | MRT∞ ([1]; 96 mg IV): 15.4 ± 6.58 h | Vss ([1]; 96 mg IV): 921 ± 425 L | Vz ([1]; 96 mg IV): 1410 ± 682 L | t1/2 ([1]; 96 mg IV): 16.1 ± 6.28 h | tmax ([1]; 96 mg IV): 1.1 ± 0.13 h | AUClast ([1]; 128 mg IV): 1730 ± 850 ng·h/mL | AUC∞ ([1]; 128 mg IV): 1980 ± 1120 ng·h/mL | CL ([1]; 128 mg IV): 79.9 ± 4.21 L/h | Cmax ([1]; 128 mg IV): 533 ± 344 ng/mL | MRT∞ ([1]; 128 mg IV): 18.1 ± 5.53 h | Vss ([1]; 128 mg IV): 1320 ± 473 L | Vz ([1]; 128 mg IV): 1790 ± 366 L | t1/2 ([1]; 128 mg IV): 17.8 ± 7.00 h | tmax ([1]; 128 mg IV): 1.1 ± 0.11 h | AUClast ([1]; 170 mg IV): 3340 ± 1500 ng·h/mL | AUC∞ ([1]; 170 mg IV): 3760 ± 1980 ng·h/mL | CL ([1]; 170 mg IV): 56.5 ± 31.5 L/h | Cmax ([1]; 170 mg IV): 955 ± 330 ng/mL | MRT∞ ([1]; 170 mg IV): 15.8 ± 7.89 h | Vss ([1]; 170 mg IV): 757 ± 218 L | Vz ([1]; 170 mg IV): 1120 ± 419 L | t1/2 ([1]; 170 mg IV): 15.0 ± 3.64 h | tmax ([1]; 170 mg IV): 1.3 ± 0.26 h | Clearance ([1]; 170 mg): 50 L/h | AUClast ([1]; 226 mg IV): 5620 ± 1390 ng·h/mL | AUC∞ ([1]; 226 mg IV): 6070 ± 1670 ng·h/mL | CL ([1]; 226 mg IV): 39.4 ± 0.17 L/h | Cmax ([1]; 226 mg IV): 1180 ± 232 ng/mL | MRT∞ ([1]; 226 mg IV): 15.2 ± 3.92 h | Vss ([1]; 226 mg IV): 569 ± 30.8 L | Vz ([1]; 226 mg IV): 787 ± 139 L | t1/2 ([1]; 226 mg IV): 14.2 ± 2.2 h | tmax ([1]; 226 mg IV): 1.2 ± 0.02 h | Clearance ([1]; 226 mg): 38 L/h | Css,u ([1]; 48 h dosing interval): 37 ng/mL | Css,u ([1]; 72 h dosing interval): 25 ng/mL | AUC increase with dose ([1]; 2.5 to 226 mg): greater than dose-proportional | Cmax increase with dose ([1]; 2.5 to 226 mg): roughly dose-proportional | Drug concentration at end of dosing interval ([1]; 48 h post-dose): approximately 20 ng/mL
